What all share (format): functional
Assay [1] has as its system Staphylococcus aureus. Description: Antibacterial activity against Gram-positive methicillin and oxacillin-resistant Staphylococcus aureus ATCC 43300 assessed as inhibition of efflux pump by measuring intracellular accumulation of ethidium bromide at 100 uM and measured every minute for 1 hr by fluorescence based microtiter plate reader analysis.
Assay [2] relates to Staphylococcus aureus. Description: Antibacterial activity against Gram-positive methicillin and oxacillin-resistant Staphylococcus aureus ATCC 43300 assessed as inhibition of efflux pump by measuring intracellular accumulation of ethidium bromide at 50 uM and measured every minute for 1 hr by fluorescence based microtiter plate reader analysis.
Assay [3] relates to Staphylococcus aureus. Description: Antibacterial activity against Gram-positive methicillin-susceptible Staphylococcus aureus ATCC 25923 assessed as inhibition of efflux pump by measuring intracellular accumulation of ethidium bromide at 50 uM and measured every minute for 1 hr by fluorescence based microtiter plate reader analysis.
In assay [4] the test system is Staphylococcus aureus. Description: Inhibition of efflux pump in Gram-positive methicillin and oxacillin-resistant Staphylococcus aureus ATCC 43300 assessed as relative fluorescence index using ethidium bromide as substrate at 100 uM and measured after 1 hr by fluorescence based microtiter plate reader analysis.
The test system of assay [5] is Staphylococcus aureus. Description: Antibacterial activity against Gram-positive methicillin-susceptible Staphylococcus aureus ATCC 25923 assessed as inhibition of efflux pump by measuring intracellular accumulation of ethidium bromide at 100 uM and measured every minute for 1 hr by fluorescence based microtiter plate reader analysis.
Assay [6] concerns Staphylococcus aureus. Description: Inhibition of efflux pump in Gram-positive methicillin-susceptible Staphylococcus aureus ATCC 25923 assessed as relative fluorescence index using ethidium bromide as substrate at 100 uM and measured after 1 hr by fluorescence based microtiter plate reader analysis.
Assay [7] has as its system Escherichia coli. Description: Antibacterial activity against Gram-negative Escherichia coli K-12 AG100 expressing AcrAB-TolC efflux pump assessed as inhibition of bacterial growth by CLSI protocol based assay.
Assay [8] deals with Staphylococcus aureus. Description: Antibacterial activity against Gram-positive methicillin and oxacillin-resistant Staphylococcus aureus ATCC 43300 assessed as inhibition of bacterial growth by CLSI protocol based assay.
In assay [9] the test system is Staphylococcus aureus. Description: Inhibition of efflux pump in Gram-positive methicillin and oxacillin-resistant Staphylococcus aureus ATCC 43300 assessed as relative fluorescence index using ethidium bromide as substrate at 50 uM and measured after 1 hr by fluorescence based microtiter plate reader analysis.
In assay [10] the test system is Escherichia coli. Description: Antibacterial activity against Gram-negative Escherichia coli K-12 AG100 expressing AcrAB-TolC efflux pump assessed as inhibition of efflux pump by measuring intracellular accumulation of ethidium bromide at 50 uM and measured every minute for 1 hr by fluorescence based microtiter plate reader analysis.
Assay [11] deals with Escherichia coli. Description: Inhibition of efflux pump in Gram-negative Escherichia coli K-12 AG100 expressing AcrAB-TolC efflux pump assessed as relative fluorescence index using ethidium bromide as substrate at 100 uM and measured after 1 hr by fluorescence based microtiter plate reader analysis.
Assay [12] relates to Staphylococcus aureus. Description: Antibacterial activity against Gram-positive methicillin-susceptible Staphylococcus aureus ATCC 25923 assessed as inhibition of bacterial growth by CLSI protocol based assay.
Assay [13] has as its system Staphylococcus aureus. Description: Inhibition of efflux pump in Gram-positive methicillin-susceptible Staphylococcus aureus ATCC 25923 assessed as relative fluorescence index using ethidium bromide as substrate at 50 uM and measured after 1 hr by fluorescence based microtiter plate reader analysis.
The test system of assay [14] is Escherichia coli. Description: Inhibition of efflux pump in Gram-negative Escherichia coli K-12 AG100 expressing AcrAB-TolC efflux pump assessed as relative fluorescence index using ethidium bromide as substrate at 50 uM and measured after 1 hr by fluorescence based microtiter plate reader analysis.
For assay [15], the system named is Escherichia coli. Description: Antibacterial activity against Gram-negative Escherichia coli K-12 AG100 expressing AcrAB-TolC efflux pump assessed as inhibition of efflux pump by measuring intracellular accumulation of ethidium bromide at 100 uM and measured every minute for 1 hr by fluorescence based microtiter plate reader analysis.
In assay [16] the test system is Staphylococcus aureus. Description: Antibacterial activity against Gram-positive methicillin-susceptible Staphylococcus aureus ATCC 25923 assessed as inhibition of efflux pump by measuring intracellular accumulation of ethidium bromide at 3.125 uM and measured every minute for 1 hr by fluorescence based microtiter plate reader analysis.
Assay [17] deals with Staphylococcus aureus. Description: Inhibition of efflux pump in Gram-positive methicillin-susceptible Staphylococcus aureus ATCC 25923 assessed as relative fluorescence index using ethidium bromide as substrate at 3.125 uM and measured after 1 hr by fluorescence based microtiter plate reader analysis.
Assay [18] deals with Staphylococcus aureus. Description: Inhibition of efflux pump in Gram-positive methicillin-susceptible Staphylococcus aureus ATCC 25923 assessed as relative fluorescence index using ethidium bromide as substrate at 25 uM and measured after 1 hr by fluorescence based microtiter plate reader analysis.
Assay [19] concerns Staphylococcus aureus. Description: Antibacterial activity against Gram-positive methicillin-susceptible Staphylococcus aureus ATCC 25923 assessed as inhibition of efflux pump by measuring intracellular accumulation of ethidium bromide at 25 uM and measured every minute for 1 hr by fluorescence based microtiter plate reader analysis.
Assay [20] has as its system Staphylococcus aureus. Description: Inhibition of efflux pump in Gram-positive methicillin and oxacillin-resistant Staphylococcus aureus ATCC 43300 assessed as relative fluorescence index using ethidium bromide as substrate at 25 uM and measured after 1 hr by fluorescence based microtiter plate reader analysis.
Assay [21] concerns Staphylococcus aureus. Description: Antibacterial activity against Gram-positive methicillin and oxacillin-resistant Staphylococcus aureus ATCC 43300 assessed as inhibition of efflux pump by measuring intracellular accumulation of ethidium bromide at 25 uM and measured every minute for 1 hr by fluorescence based microtiter plate reader analysis.

Converted amounts (≈) assume the structure as drawn.

By MIC is commonly meant the smallest concentration in the dilution series that meets the test's criterion for growth inhibition.

Consider `CCOC(=O)C(c1ccc2ccccc2c1O)N1CCOCC1` (centres undefined), for which the Activity in the assay on Staphylococcus aureus [1] is 18886; with Staphylococcus aureus [2] it was 56126.33; in the assay on Staphylococcus aureus [3], 11677.33; with Staphylococcus aureus [4], -0.76; with Staphylococcus aureus [5] it was 7624.33; in the assay on Staphylococcus aureus [6], -0.72. Moreover, the Activity in the assay on Staphylococcus aureus [9] is -0.28; in the assay with Escherichia coli [10] it was 7485.67; with Escherichia coli [11] it was -0.81; in the assay with Staphylococcus aureus [13] it was -0.58; in the assay on Escherichia coli [14], -0.78; in the assay with Escherichia coli [15], 6561.67. Further, the MIC with Escherichia coli [7], with Staphylococcus aureus [8] and in the assay on Staphylococcus aureus [12] was greater than 100 µM throughout.

`CCOC(=O)C(c1c(O)ccc2ccccc12)N1CCOCC1` (centres undefined): the Activity came to 84280 in the assay on Staphylococcus aureus [1]; 87762.67 with Staphylococcus aureus [2]; 58168.67 in the assay on Staphylococcus aureus [3]; 0.08 in the assay with Staphylococcus aureus [4]; 51721 in the assay on Staphylococcus aureus [5]; 0.87 with Staphylococcus aureus [6]. Also, the Activity in the assay with Staphylococcus aureus [9] stood at 0.12; with Escherichia coli [10], 44310; in the assay with Escherichia coli [11], 0.07; in the assay on Staphylococcus aureus [13], 1.1; with Escherichia coli [14] it was 0.29; in the assay with Escherichia coli [15], 36685.33. For the same compound, the MIC in the assay on Escherichia coli [7], in the assay on Staphylococcus aureus [8] and in the assay on Staphylococcus aureus [12] was greater than 100 µM in each case.

`CCOC(=O)[C@H]1c2c(ccc3ccccc23)O[C@@H]2c3ccsc3CCN21` (relative stereo): the Activity with Staphylococcus aureus [1] stood at 88655.67; with Staphylococcus aureus [2] it was 88184.67; in the assay with Staphylococcus aureus [3] it was 29306; with Staphylococcus aureus [4] it was 0.14; in the assay on Staphylococcus aureus [5], 33816.67; in the assay on Staphylococcus aureus [6], 0.22. Also, the Activity with Staphylococcus aureus [9] was found to be 0.13; in the assay with Escherichia coli [10], 34078.33; with Escherichia coli [11] it was 0.02; in the assay with Staphylococcus aureus [13] it was 0.06; with Escherichia coli [14] it was 0; in the assay on Escherichia coli [15], 34921.33. In addition, the MIC in the assay on Escherichia coli [7], with Staphylococcus aureus [8] and with Staphylococcus aureus [12] was greater than 100 µM in each case.

`CCOC(=O)[C@H]1c2c(ccc3ccccc23)O[C@@H]2c3ccccc3CCN21` (relative stereo): the Activity was found to be 93822.67 in the assay with Staphylococcus aureus [1]; 92734 in the assay with Staphylococcus aureus [2]; 31759 with Staphylococcus aureus [3]; 0.2 in the assay on Staphylococcus aureus [4]; 31231.67 in the assay on Staphylococcus aureus [5]; 0.13 with Staphylococcus aureus [6]. The Activity with Staphylococcus aureus [9] came to 0.19; in the assay on Escherichia coli [10], 35837.67; in the assay with Escherichia coli [11], 0.07; with Staphylococcus aureus [13], 0.15; with Escherichia coli [14] it was 0.05; in the assay with Escherichia coli [15], 36732. The MIC in the assay with Escherichia coli [7], in the assay on Staphylococcus aureus [8] and with Staphylococcus aureus [12] was greater than 100 µM throughout.

For `CCOC(=O)[C@H]1c2c(ccc3ccccc23)O[C@@H]2c3[nH]c4ccccc4c3CCN21` (relative stereo), the Activity in the assay with Staphylococcus aureus [1] was 78009; in the assay on Staphylococcus aureus [2], 76072; with Staphylococcus aureus [3] it was 27892.33; in the assay on Staphylococcus aureus [4], 0; in the assay on Staphylococcus aureus [5], 29131.67; with Staphylococcus aureus [6], 0.05. Further, the Activity with Staphylococcus aureus [9] was -0.03; in the assay on Escherichia coli [10], 34706; in the assay with Escherichia coli [11], 0.06; in the assay with Staphylococcus aureus [13] it was 0.01; in the assay with Escherichia coli [14], 0.01; in the assay with Escherichia coli [15], 36337.67. Further, the MIC in the assay with Escherichia coli [7], with Staphylococcus aureus [8] and in the assay with Staphylococcus aureus [12] was greater than 100 µM throughout.

As to `CCOC(=O)[C@H]1c2ccc3ccccc3c2O[C@@H]2c3[nH]c4ccccc4c3CCN21` (relative stereo), the Activity was 90479.33 in the assay on Staphylococcus aureus [1]; 84683 in the assay with Staphylococcus aureus [2]; 0.16 in the assay on Staphylococcus aureus [4]; 34824.33 in the assay on Staphylococcus aureus [16]; 0.09 in the assay on Staphylococcus aureus [9]; 0.26 with Staphylococcus aureus [17]. For the same compound, the Activity is 33567.67 with Escherichia coli [10], -0.06 in the assay on Escherichia coli [11], -0.02 in the assay with Escherichia coli [14] and 32220.33 in the assay with Escherichia coli [15]. The figures for the minimal inhibitory concentration (MIC) in the assay on Escherichia coli [7], in the assay with Staphylococcus aureus [8] and in the assay with Staphylococcus aureus [12] were greater than 100 µM, greater than 100 µM and 6.25 µM (≈ 2.49 µg/mL), respectively.

Turning to `CCOC(=O)[C@H]1c2ccc3ccccc3c2O[C@@H]2c3ccsc3CCN21` (relative stereo), the Activity in the assay on Staphylococcus aureus [1] turned out to be 103410; in the assay with Staphylococcus aureus [2], 101450.33; in the assay with Staphylococcus aureus [3] it was 36826.67; with Staphylococcus aureus [4], 0.33; with Staphylococcus aureus [5], 77859.67; in the assay with Staphylococcus aureus [6], 1.82. For the same compound, the Activity came to 0.3 in the assay with Staphylococcus aureus [9]; 34561.67 in the assay on Escherichia coli [10]; 0.05 in the assay with Escherichia coli [11]; 0.33 in the assay on Staphylococcus aureus [13]; 0.01 with Escherichia coli [14]; 35945.67 in the assay with Escherichia coli [15]. Also, the MIC in the assay on Escherichia coli [7], with Staphylococcus aureus [8] and in the assay with Staphylococcus aureus [12] was greater than 100 µM throughout.

Regarding `CCOC(=O)[C@H]1c2ccc3ccccc3c2O[C@@H]2c3ccccc3CCN21` (relative stereo), the Activity with Staphylococcus aureus [1] worked out at 114226; in the assay with Staphylococcus aureus [2], 111300.67; in the assay on Staphylococcus aureus [3] it was 44414.33; with Staphylococcus aureus [4], 0.46; in the assay with Staphylococcus aureus [5], 42864; with Staphylococcus aureus [6], 0.55. Besides, the Activity is 0.43 in the assay with Staphylococcus aureus [9]; 37156.33 with Escherichia coli [10]; 0.08 in the assay on Escherichia coli [11]; 0.61 in the assay on Staphylococcus aureus [13]; 0.09 in the assay with Escherichia coli [14]; 36999.33 in the assay with Escherichia coli [15]. Besides, the MIC in the assay on Escherichia coli [7], with Staphylococcus aureus [8] and in the assay on Staphylococcus aureus [12] was greater than 100 µM each time.

As for `N#CC(C#N)=NNc1cccc(Cl)c1` [CARBONYL CYANIDE M-CHLOROPHENYLHYDRAZONE], the Activity was determined as 72448.33 in the assay with Escherichia coli [10] and 1.12 in the assay with Escherichia coli [14].

With `COC(=O)[C@H]1[C@H]2C[C@@H]3c4[nH]c5cc(OC)ccc5c4CCN3C[C@H]2C[C@@H](OC(=O)c2cc(OC)c(OC)c(OC)c2)[C@@H]1OC` [RESERPINE], the Activity amounted to 0.96 in the assay on Staphylococcus aureus [18], 54056 with Staphylococcus aureus [19], 0.3 in the assay on Staphylococcus aureus [20] and 101532.7 in the assay with Staphylococcus aureus [21].

These data come from ChEMBL document CHEMBL5120842, “Application of partially aromatic ortho-quionone-methides for the synthesis of novel naphthoxazines with improved antibacterial activity” (2022).
